Test results: patent publication US11285127B2, “Compositions and methods for lowering triglycerides without raising LDL-C levels in a subject on concomitant statin therapy” (Amarin Pharmaceuticals Ireland Limited, priority 2013, dated 2022)

System: patients with fasting triglyceride levels >200 mg/dl and <500 mg/dl despite statin therapy
Experiment: 12-week study: lipoprotein particle concentration (VLDL, LDL, HDL; nuclear magnetic resonance)
Assay type: in vivo, human
Description: Parameters (a)-(z) can be measured in accordance with any clinically acceptable methodology. For example, triglycerides, total cholesterol, HDL-C and fasting blood sugar can be sample from serum and analyzed using standard photometry techniques. VLDL-TG, LDL-C and VLDL-C can be calculated or determined using serum lipoprotein fractionation by preparative ultracentrifugation and subsequent quantitative analysis by refractometry or by analytic ultracentrifugal methodology. Apo A1, Apo B and hsCRP can be determined from serum using standard nephelometry techniques. Lipoprotein (a) can be determined from serum using standard turbidimetric immunoassay techniques. LDL particle number and particle size can be determined using nuclear magnetic resonance (NMR) spectrometry. Remnants lipoproteins and LDL-phospholipase A2 can be determined from EDTA plasma or serum and serum, respectively, using enzymatic immunoseparation techniques. Oxidized LDL, intercellular adhesion molecule-1 and interleukin-2 levels can be determined from serum using standard enzyme immunoassay techniques. These techniques are described in detail in standard textbooks, for example Tietz Fundamentals of Clinical Chemistry, 6th Ed. (Burtis, Ashwood and Borter Eds.), WB Saunders Company.
A multi-center, placebo-controlled, randomized, double-blind, 12-week study was performed to evaluate the efficacy and safety of >96% E-EPA in patients with fasting triglyceride levels >200 mg/dl and <500 mg/dl despite statin therapy (the mean of two qualifying entry values needed to be >185 mg/dl and at least one of the values needed to be >200 mg/dl). The primary objective of the study was to determine the efficacy of >96% E-EPA 2 g daily and 4 g daily, compared to placebo, in lowering fasting TG levels in patients with high risk for cardiovascular disease and with fasting TG levels 200 mg/dl and <500 mg/dl, despite treatment to LDL-C goal on statin therapy.
The secondary objectives of this study were the following: • 1. To determine the safety and tolerability of >96% E-EPA 2 g daily and 4 g daily; • 2. To determine the effect of >96% E-EPA on lipid and apolipoprotein profiles including total cholesterol (TC), non-high-density lipoprotein cholesterol (non-HDL-C), low density lipoprotein cholesterol (LDL-C), high density lipoprotein cholesterol (HDL-C), and […]; • 3. To determine the effect of >96% E-EPA on lipoprotein associated phospholipase A2 (Lp-PLA2) from baseline to week 12; • 4. To determine the effect of >96% E-EPA on low-density lipoprotein (LDL) particle number and size; • 5. To determine the effect of >96% E-EPA on oxidized LDL; • 6. To determine the effect of >96% E-EPA on fasting plasma glucose (FPG) and hemoglobin A1c (HbA1c); • 7. To determine the effect of >96% E-EPA on insulin resistance; • 8. To determine the effect of >96% E-EPA on high-sensitivity C-reactive protein (hsCRP); • 9. To determine the effects of >96% E-EPA 2 g daily and 4 g daily on the incorporation of fatty acids into red blood cell membranes and into plasma phospholipids; • 10. To explore the relationship between baseline fasting TG levels and the reduction in fasting TG levels; and • 11. To explore the relationship between changes of fatty acid concentrations in plasma and red blood cell membranes, and the reduction in fasting TG levels.
The primary efficacy variable for the double-blind treatment period was percent change in TG from baseline to Week 12 endpoint. […]

[1] = IPE 4 g/day (n = 216), 12 weeks
[2] = IPE 4 g/day (n = 216); 12 weeks
[3] = IPE 4 g/day (n = 216); 12 weeks; IDL (23-29 nm)
[4] = IPE 4 g/day (n = 216); 12 weeks; large HDL (9.4-14.0 nm)
[5] = IPE 4 g/day (n = 216); 12 weeks; large LDL (20.5-23.0 nm)
[6] = IPE 4 g/day (n = 216); 12 weeks; large VLDL (>60 nm)
[7] = IPE 4 g/day (n = 216); 12 weeks; medium HDL (8.2-9.4 nm)
[8] = IPE 4 g/day (n = 216); 12 weeks; medium VLDL (42-60 nm)
[9] = IPE 4 g/day (n = 216); 12 weeks; small HDL (7.3-8.2 nm)
[10] = IPE 4 g/day (n = 216); 12 weeks; small LDL (18.0-20.5 nm)
[11] = IPE 4 g/day (n = 216); 12 weeks; small VLDL (29-42 nm)
[12] = IPE 4 g/day vs placebo; 12 weeks; Hodges-Lehmann median

## CC/C=C\C/C=C\C/C=C\C/C=C\C/C=C\CCCC(=O)OCC [AMR101, ethyl eicosapentaenoate]
IPE 2 g/day (n = 222), 12 weeks
  Total VLDL particle concentration, End of Treatment (median): 122.4 nmol/L
[1]
  IDL particle concentration, Change from Baseline % (median): 23.7%
  IDL particle concentration, End of Treatment (median): 63.0 nmol/L
  Large HDL particle concentration, Change from Baseline % (median): −21.6%
  Large HDL particle concentration, End of Treatment (median): 1.9 µmol/L
  Large LDL particle concentration, Change from Baseline % (median): 55.2%
  Large LDL particle concentration, End of Treatment (median): 172.5 nmol/L
  Large VLDL particle concentration, Change from Baseline % (median): −41.9%
  Large VLDL particle concentration, End of Treatment (median): 7.7 nM
  Medium HDL particle concentration, Change from Baseline % (median): 4.2%
  Medium HDL particle concentration, End of Treatment (median): 6.9 µmol/L
  Medium VLDL particle concentration, Change from Baseline % (median): −6.9%
  Medium VLDL particle concentration, End of Treatment (median): 49.7 nmol/L
  Small HDL particle concentration, Change from Baseline % (median): −3.9%
  Small HDL particle concentration, End of Treatment (median): 23.1 µmol/L
  Small LDL particle concentration, Change from Baseline % (median): −1.1%
  Small LDL particle concentration, End of Treatment (median): 902.5 nmol/L
  Small VLDL particle concentration, Change from Baseline % (median): 8.3%
  Small VLDL particle concentration, End of Treatment (median): 46.8 nmol/L
  Total HDL particle concentration, Change from Baseline % (median): −4.0%
  Total HDL particle concentration, End of Treatment (median): 32.6 µmol/L
  Total LDL particle concentration, Change from Baseline % (median): 3.8%
  Total LDL particle concentration, End of Treatment (median): 1191 nmol/L
  Total VLDL particle concentration, Change from Baseline % (median): −2.5%
  Total VLDL particle concentration, End of Treatment (median): 110.0 nmol/L
[2]
  Total HDL particle concentration, Change from Baseline % (median): −4.0%
  Total HDL particle concentration, End of Treatment (median): 32.6 μmon/L
  Total LDL particle concentration, Change from Baseline % (median): 3.8%
  Total LDL particle concentration, End of Treatment (median): 1191 nmol/L
  Total VLDL particle concentration, Change from Baseline % (median): −2.5%
  Total VLDL particle concentration, End of Treatment (median): 110.0 nmol/L
[3]
  IDL particle concentration, Change from Baseline % (median): 23.7%
  IDL particle concentration, End of Treatment (median): 63.0 nmol/L
[4]
  Large HDL particle concentration, Change from Baseline % (median): −21.6%
  Large HDL particle concentration, End of Treatment (median): 1.9 μmon
[5]
  Large LDL particle concentration, Change from Baseline % (median): 55.2%
  Large LDL particle concentration, End of Treatment (median): 172.5 nmol/L
[6]
  Large VLDL particle concentration, Change from Baseline % (median): −41.9%
  Large VLDL particle concentration, End of Treatment (median): 7.7 nM
[7]
  Medium HDL particle concentration, Change from Baseline % (median): 4.2%
  Medium HDL particle concentration, End of Treatment (median): 6.9 μmon/L
[8]
  Medium VLDL particle concentration, Change from Baseline % (median): −6.9%
  Medium VLDL particle concentration, End of Treatment (median): 49.7 nmol/L
[9]
  Small HDL particle concentration, Change from Baseline % (median): −3.9%
  Small HDL particle concentration, End of Treatment (median): 23.1 μmon/L
[10]
  Small LDL particle concentration, Change from Baseline % (median): −1.1%
  Small LDL particle concentration, End of Treatment (median): 902.5 nmol/L
[11]
  Small VLDL particle concentration, Change from Baseline % (median): 8.3%
  Small VLDL particle concentration, End of Treatment (median): 46.8 nmol/L
[12]
  Total HDL particle concentration, Median Change From Baseline IPE 4 g/day vs Placebo, %: −7.4%
  Total LDL particle concentration, Median Change From Baseline IPE 4 g/day vs Placebo, %: −7.7%
  Total VLDL particle concentration, Median Change From Baseline IPE 4 g/day vs Placebo, %: −12.2%
IPE 4 g/day vs placebo; 12 weeks; Hodges-Lehmann median; IDL (23-29 nm)
  IDL particle concentration, Median Change From Baseline IPE 4 g/day vs Placebo, %: 10.0%
IPE 4 g/day vs placebo; 12 weeks; Hodges-Lehmann median; large HDL (9.4-14.0 nm)
  Large HDL particle concentration, Median Change From Baseline IPE 4 g/day vs Placebo, %: −31.0%
IPE 4 g/day vs placebo; 12 weeks; Hodges-Lehmann median; large LDL (20.5-23.0 nm)
  Large LDL particle concentration, Median Change From Baseline IPE 4 g/day vs Placebo, %: 34.2%
IPE 4 g/day vs placebo; 12 weeks; Hodges-Lehmann median; large VLDL (>60 nm)
  Large VLDL particle concentration, Median Change From Baseline IPE 4 g/day vs Placebo, %: −46.4%
IPE 4 g/day vs placebo; 12 weeks; Hodges-Lehmann median; medium HDL (8.2-9.4 nm)
  Medium HDL particle concentration, Median Change From Baseline IPE 4 g/day vs Placebo, %: −6.5%
IPE 4 g/day vs placebo; 12 weeks; Hodges-Lehmann median; medium VLDL (42-60 nm)
  Medium VLDL particle concentration, Median Change From Baseline IPE 4 g/day vs Placebo, %: −12.1%
IPE 4 g/day vs placebo; 12 weeks; Hodges-Lehmann median; small HDL (7.3-8.2 nm)
  Small HDL particle concentration, Median Change From Baseline IPE 4 g/day vs Placebo, %: −2.8%
IPE 4 g/day vs placebo; 12 weeks; Hodges-Lehmann median; small LDL (18.0-20.5 nm)
  Small LDL particle concentration, Median Change From Baseline IPE 4 g/day vs Placebo, %: −13.5%
IPE 4 g/day vs placebo; 12 weeks; Hodges-Lehmann median; small VLDL (29-42 nm)
  Small VLDL particle concentration, Median Change From Baseline IPE 4 g/day vs Placebo, %: 2.8%
